System: Glo-Response ARE-luc2P HEK293 cell line
Assay: ARE luciferase reporter cell-based assay;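 note: luciferase signal tracks Nrf2 activation of the ARE once compounds disrupt KEAP1-Nrf2 binding, read with One-Glo reagent, DMSO serving as low control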
Details: average of results obtained

Compound | EC50 (Homo sapiens, HEK293, 24 h) | EC50 (24 hours)
Cc1ccc([C@H](c2ccn3c(C(F)(F)F)nnc3c2C)C(C)(C)C(=O)O)cc1CN1CC2(CCOCC2)Oc2nc(NCCCO)ccc2S1(=O)=O (single isomer, unassigned) [Example 116, (*R)-3-(3-((7′-((3-Hydroxypropyl)amino)-1′,1′-dioxido-2,3,5,6-tetrahydrospiro[pyran-4,4′-pyrido[2,3-b][1,4,5]oxathiazepin]-2′(3′H)-yl)methyl)-4-methylphenyl)-2,2-dimethyl-3-(8-methyl-3-(trifluoromethyl)-[1,2,4[triazolo[4,3-a]pyridine-7-yl)propanoic Acid] | 991 nM | –
CCn1nnc2c(C)c(C(CC(=O)O)c3ccc(C)c(CN4CC(C)(C)Oc5ccccc5S4(=O)=O)c3)ccc21 (racemic) [Example 151, (R/S)-3-(3-((4,4-Dimethyl-1,1-dioxido-3,4-dihydro-2H-benzo[b][1,4,5]oxathiazepin-2-yl)methyl)-4-methylphenyl)-3-(1-ethyl-4-methyl-1H-benzo[d][1,2,3]triazol-5-yl)propanoic Acid] | 10 nM | –
Cc1ncc([C@@H](c2ccn3c(C(F)(F)F)nnc3c2C)C(C)(C)C(=O)O)cc1CN1C[C@H]2CCCCN2c2ncc(C#N)cc2S1(=O)=O (relative stereo) [Example 654, (*R)-3-(5-(((*R)-3-Cyano-5,5-dioxido-7,7a,8,9,10,11-hexahydro-6H-dipyrido[2,1-d:2′,3′-f][1,2,5]thiadiazepin-6-yl)methyl)-6-methylpyridin-3-yl)-2,2-dimethyl-3-(8-methyl-3-(trifluoromethyl)-[1,2,4]triazolo[4,3-a]pyridin-7-yl)propanoic Acid] | 6880 nM | –
Cc1ccc([C@H](CC(=O)O)c2ccc3c(nnn3CC3CC3)c2C)cc1CN1CC2(CC2)N(C)c2ncccc2S1(=O)=O (single isomer, unassigned) [Example 78, (*S)-3-(1-(Cyclopropylmethyl)-4-methyl-1H-benzo[d][1,2,3]triazol-5-yl)-3-(4-methyl-3-((5′-methyl-1′,1′-dioxido-5′H-spiro[cyclopropane-1,4′-pyrido[2,3-f][1,2,5]thiadiazepin]-2′(3′H)-yl)methyl)phenyl)propanoic Acid] | 8.9 nM | –
Cc1ccc([C@H](CC(=O)O)c2ccn3c(C(F)F)nnc3c2C)cc1CN1C[C@@H]2CCCCN2c2ncccc2S1(=O)=O (relative stereo) [Example 447, (*S)-3-(3-(Difluoromethyl)-8-methyl-[1,2,4]triazolo[4,3-a]pyridin-7-yl)-3-(3-(((*S)-5,5-dioxido-7,7a,8,9,10,11-hexahydro-6H-dipyrido[2,1-d:2′,3′-f][1,2,5]thiadiazepin-6-yl)methyl)-4-methylphenyl)propanoic Acid] | 2.93 nM | –
CCn1nnc2c(C)c([C@@H](CC(=O)O)c3ccc(C)c(CN4C[C@H]5CCCN5c5ccccc5S4(=O)=O)c3)ccc21 (single isomer, unassigned) [Example 153, (*S)-3-(3-(((R)-5,5-Dioxido-7a,8,9,10-tetrahydrobenzo[f]pyrrolo[2,1-d][1,2,5]thiadiazepin-6(7H)-yl)methyl)-4-methylphenyl)-3-(1-ethyl-4-methyl-1H-benzo[d][1,2,3]triazol-5-yl)propanoic Acid] | 3 nM | –
Cc1cc2cc([C@H](c3ccc(C)c(CN4CC5(CCOCC5)Oc5nc(OCCN6CCCC6)c(C)cc5S4(=O)=O)c3)C(C)(C)C(=O)O)n(C)c2nn1 (single isomer, unassigned) [Example 347, (*R)-3-(3,7-Dimethyl-7H-pyrrolo[2,3-c]pyridazine-6-yl)-2,2-dimethyl-3-(4-methyl-3-((8′-methyl-1′,1′-dioxido-7′-(2-(pyrrolidine-1-yl)-ethoxy)2,3,5,6-tetrahydrospiro[pyran-4,4′-pyrido[2,3-b][1,4,5]oxathiazepin]-2′,(3′H)-yl)methyl)phenyl)propanoic Acid] | 3580 nM | –
CCn1nnc2c(C)c([C@H](c3ccc(C)c(CN4CC5(CCOCC5)Oc5ncccc5S4(=O)=O)c3)C(C)(C)C(=O)O)ccc21 (single isomer, unassigned) [Example 15, (*S)-3-(3-((1′,1′-Dioxido-2,3,5,6-tetrahydrospiro[pyran-4,4′-pyrido[2,3-b][1,4,5]oxathiazepin]-2′(3′H)-yl)methyl)-4-methylphenyl)-3-(1-ethyl-4-methyl-1H-benzo[d][1,2,3]triazol-5-yl)-2,2-dimethylpropanoic Acid] | 0.3 nM | –
Cc1cnc2c(c1)S(=O)(=O)N(Cc1cc([C@H](c3ccn4c(C(F)(F)F)nnc4c3C)[C@@H](C)C(=O)O)ccc1C)CC1(CC1)O2 (relative stereo) [Example 546, (2*R,3*R)-2-Methyl-3-(4-methyl-3-((8′-methyl-1′,1′-dioxidospiro[cyclopropane-1,4′-pyrido[2,3-b][1,4,5]oxathiazepin]-2′(3′H)-yl)methyl)phenyl)-3-(8-methyl-3-(trifluoromethyl)-[1,2,4]triazolo[4,3-a]pyridin-7-yl)propanoic Acid] | > 20000 nM | –
CCn1nnc2c(C)c([C@@H](CC(=O)O)c3ccc(C)c(CN4C[C@H]5CCCCN5c5ncccc5S4(=O)=O)c3)ccc21 (single isomer, unassigned) [Example 145, (*S)-3-(3-(((*R)-5,5-Dioxido-7,7a,8,9,10,11-hexahydro-6H-dipyrido[2,1-d:2′,3′-f][1,2,5]thiadiazepin-6-yl)methyl)-4-methylphenyl)-3-(1-ethyl-4-methyl-1H-benzo[d][1,2,3]triazol-5-yl)propanoic Acid] | 1.1 nM | –
CCn1nnc2c(C)c(C(c3ccc(C)c(CN4CC5(CCOCC5)Oc5ncccc5S4(=O)=O)c3)C(C)(C)C(=O)O)ccc21 (stereo not drawn) [Example 14, 3-(3-((1′,1′-Dioxido-2,3,5,6-tetrahydrospiro[pyran-4,4′-pyrido[2,3-b][1,4,5]oxathiazepin]-2′(3′H)-yl)methyl)-4-methylphenyl)-3-(1-ethyl-4-methyl-1H-benzo[d][1,2,3]triazol-5-yl)-2,2-dimethylpropanoic Acid] | 0.7 nM | –
Cc1cc2cc([C@H](c3ccc(C)c(CN4CC5(CC5)Oc5nc(OCCN6CCCC6)c(C)cc5S4(=O)=O)c3)C(C)(C)C(=O)O)n(C)c2nn1 (single isomer, unassigned) [Example 353, (*R)-3-(3,7-Dimethyl-7H-pyrrolo[2,3-c]pyridazine-6-yl)-2,2-dimethyl-3-(4-methyl-3-((8′-methyl-1′,1′-dioxido-7′-(2-(pyrrolidin-1-yl)-ethoxy)spiro[cyclopropane-1,4′-pyrido[2,3-b][1,4,5]oxathiazepin]-2′-(3′H)-yl)methyl)phenyl)propanoic Acid] | 1410 nM | –
Cc1cnc2c(c1)S(=O)(=O)N(Cc1cc([C@@H](c3ccn4c(C(F)(F)F)nnc4c3C)C(C)(C)C(=O)O)ccc1C)CC1(CCOCC1)O2 (single isomer, unassigned) [Example 407, (*S)-2,2-dimethyl-3-(4-methyl-3-((8′-methyl-1′,1′-dioxido-2,3,5,6-tetrahydrospiro[pyran-4,4′-pyrido[2,3-b][1,4,5]oxathiazepin]-2′(3′H)-yl)methyl)phenyl)-3-(8-methyl-3-(trifluoromethyl)-[1,2,4]triazolo[4,3-a]pyridin-7-yl)propanoic Acid] | – | 1.47 nM
Cc1cnc2c(c1)S(=O)(=O)N(Cc1cc(C(c3ccn4c(C(F)(F)F)nnc4c3C)C(C)(C)C(=O)O)ccc1C)CC1(CC1)O2 (stereo not drawn) [Example 313, 2,2-Dimethyl-3-(4-methyl-3-((8′-methyl-1′,1′-dioxidospiro[cyclopropane-1,4′-pyrido[2,3-b][1,4,5]oxathiazepin]-2′(3′H)-yl)methyl)phenyl)-3-(8-methyl-3-(trifluoromethyl)-[1,2,4]triazolo[4,3-a]pyridin-7-yl)propanoic Acid] | 1.1 nM | –
Cc1cc2cc([C@@H](c3ccc(C)c(CN4CC5(CCOCC5)Oc5nc(OCCN6CCCC6)c(C)cc5S4(=O)=O)c3)C(C)(C)C(=O)O)n(C)c2nn1 (single isomer, unassigned) [Example 346, (*S)-3-(3,7-Dimethyl-7H-pyrrolo[2,3-c]pyridazin-6-yl)-2,2-dimethyl-3-(4-methyl-3-((8′-methyl-1′,1′-dioxido-7′-(2-(pyrrolidin-1-yl)ethoxy)-2,3,5,6-tetrahydrospiro[pyran-4,4′-pyrido[2,3-b][1,4,5]oxathiazepin]-2′(3′H)-yl)methyl)phenyl)propanoic Acid] | 49.8 nM | –
Cc1cc2cc([C@@H](c3ccc(C)c(CN4CC5(CC5)Oc5nc(OCCN6CCCCC6)c(C)cc5S4(=O)=O)c3)C(C)(C)C(=O)O)n(C)c2nn1 (single isomer, unassigned) [Example 350, (*S)-3-(3,7-Dimethyl-7H-pyrrolo[2,3-c]pyridazine-6-yl)-2,2-dimethyl-3-(4-methyl-3-((8′-methyl-1′,1′-dioxido-7′-(2-(piperidine-1-yl)-ethoxy)spiro[cyclopropane-1,4′-pyrido[2,3-b][1,4,5]oxathiazepin]-2′,(3′H)-yl)methyl)phenyl)propanoic Acid] | 23.4 nM | –
Cc1ccc([C@H](CC(=O)O)c2ccn3c(C(F)(F)F)nnc3c2C)cc1CN1C[C@H]2CCCCN2c2ncc(F)cc2S1(=O)=O (relative stereo) [Example 310, (*S)-3-(3-(((*R)-3-fluoro-5,5-dioxido-7,7a,8,9,10,11-hexahydro-6H-dipyrido[2,1-d:2′,3′-f][1,2,5]thiadiazepin-6-yl)methyl)-4-methylphenyl)-3-(8-methyl-3-(trifluoromethyl)-[1,2,4]triazolo[4,3-a]pyridin-7-yl)propanoic Acid] | 3 nM | –
CCn1nnc2c(C)c([C@H](c3ccc(C)c(CN4CC5(CCOCC5)Oc5ncc(C)cc5S4(=O)=O)c3)C(C)(C)C(=O)O)ccc21 (single isomer, unassigned) [Example 421, (*R)-3-(1-ethyl-4-methyl-1H-benzo[d][1,2,3]triazol-5-yl)-2,2-dimethyl-3-(4-methyl-3-((8′-methyl-1′,1′-dioxido-2,3,5,6-tetrahydrospiro[pyran-4,4′-pyrido[2,3-b][1,4,5]oxathiazepin]-2′(3′H)-yl)methyl)phenyl)propanoic Acid] | 0.24 nM | –

Source: patent publication US10947252B2, “Inhibitors of KEAP1-Nrf2 protein-protein interaction” (Janssen Pharmaceutica NV, priority 2018, dated 2021)
